Numbered stars: 1 amine (or outer) side, 2 acyl side, 3 side chain; on linkers, the order of the positions; unused ones are H or OH. Bridge positions count the residues as written; N and C are the ends. Square brackets hold non-standard residues; d marks the D form. Side chains are listed from the residue outwards. Peptide text beside a SMILES is read from it. I, II: the chains in the order shown. * marks the point of attachment. C18 diacid = O=C(O)CCCCCCCCCCCCCCCCC(=O)*; γGlu = O=C(O)[C@H](CCC(=O)[*:2])N[*:1]; Ac4c = NC1(C(=O)O)CCC1; AEEA = NCCOCCOCC(=O)O; Aib = CC(C)(N)C(=O)O
biological target: T1, human GLP-1 receptor (Homo sapiens, UniProt P43220); test: GLP-1 receptor binding, 125I-GLP-1 displacement SPA on isolated membranes; settings: displacement of 125I-GLP-1 from membranes; read-out: IC50 GLP-1R
T1 construct: expressed in transfected cells; host or cells: BHK cells (parent BHKTS13), clone FCW467-12A/KZ10-1, with CRE luciferase
Outline: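 SPA displacement of 125I-GLP-1(7-36)NH2 from membranes of BHK cells expressing human GLP-1 receptor, with WGA beads, in 50 mM HEPES, 5 mM EGTA, 5 mM MgCl2, 0.005% Tween 20, pH 7.4. Incubated 2 h at 30°C; IC50 by non-linear regression, run at ≤0.001% or 2.0% final serum albumin.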

T1 sequence (P43220 24-463): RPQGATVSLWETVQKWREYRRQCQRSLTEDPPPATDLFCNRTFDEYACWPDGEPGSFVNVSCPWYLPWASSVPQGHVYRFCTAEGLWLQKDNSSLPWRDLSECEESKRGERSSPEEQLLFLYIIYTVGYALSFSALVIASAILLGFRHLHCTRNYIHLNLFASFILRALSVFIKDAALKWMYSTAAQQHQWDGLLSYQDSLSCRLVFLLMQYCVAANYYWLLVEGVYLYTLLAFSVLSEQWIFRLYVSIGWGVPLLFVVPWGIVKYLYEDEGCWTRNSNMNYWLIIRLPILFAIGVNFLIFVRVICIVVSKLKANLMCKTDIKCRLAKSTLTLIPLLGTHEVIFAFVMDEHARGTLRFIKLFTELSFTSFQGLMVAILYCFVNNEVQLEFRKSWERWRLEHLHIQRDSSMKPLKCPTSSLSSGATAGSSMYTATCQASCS

**Q.** Which IC50 does the source give for `CC(C)C[C@H](NC(=O)[C@H](Cc1ccc(O)cc1)NC(=O)[C@H](CCCCN)NC(=O)[C@H](CO)NC(=O)[C@H](CC(C)C)NC(=O)[C@H](CC(=O)O)NC(=O)[C@H](CO)NC(=O)[C@@H](NC(=O)[C@H](Cc1ccccc1)NC(=O)[C@@H](NC(=O)CNC(=O)[C@H](CCC(N)=O)NC(=O)C(C)(C)NC(=O)[C@@H](N)Cc1c[nH]cn1)[C@@H](C)O)[C@@H](C)O)C(=O)N[C@@H](CCC(=O)O)C(=O)N[C@@H](CO)C(=O)N[C@@H](CCCNC(=N)N)C(=O)N[C@@H](CCCNC(=N)N)C(=O)N[C@@H](C)C(=O)N[C@@H](CCCNC(=N)N)C(=O)N[C@@H](CCC(=O)O)C(=O)N[C@@H](Cc1ccccc1)C(=O)N[C@H](C(=O)N[C@@H](CCC(N)=O)C(=O)N[C@@H](Cc1c[nH]c2ccccc12)C(=O)N[C@@H](CC(C)C)C(=O)N[C@@H](CC(C)C)C(=O)N[C@@H](CCCCNC(=O)CC[C@H](NC(=O)CC[C@H](NC(=O)COCCOCCNC(=O)COCCOCCNC(=O)CC[C@H](NC(=O)CCCCCCCCCCCCCCCCC(=O)O)C(=O)O)C(=O)O)C(=O)O)C(=O)N[C@H](C(N)=O)[C@@H](C)O)C(C)C` [Example 23, N^ε28-[(4S)-4-carboxy-4-[[(4S)-4-carboxy-4-[[2-[2-[2-[[2-[2-[2-[[(4S)-4-carboxy-4-(17-carboxyheptadecanoylamino)butanoyl]amino]ethoxy]ethoxy]acetyl]amino]ethoxy]ethoxy]acetyl]amino]butanoyl]amino]butanoyl]-[Aib2,Leu10,Glu15,Arg20,Glu21,Leu27,Lys28]-Glucagon amide] (H-H[Aib]QGTFTSDLSKYLESRRAREFVQWLLK([γGlu-γGlu-AEEA-AEEA-γGlu-C18 diacid])T-NH2; N-terminus assumed) here?
**A.** The IC50 was 0.3 nM.

**Q.** `CC(C)C[C@H](NC(=O)[C@H](Cc1ccc(O)cc1)NC(=O)[C@H](CCCCN)NC(=O)[C@H](CO)NC(=O)[C@H](CC(C)C)NC(=O)[C@H](CC(=O)O)NC(=O)[C@H](CO)NC(=O)[C@@H](NC(=O)[C@H](Cc1ccccc1)NC(=O)[C@@H](NC(=O)CNC(=O)[C@H](CCC(N)=O)NC(=O)C(C)(C)NC(=O)[C@@H](N)Cc1c[nH]cn1)[C@@H](C)O)[C@@H](C)O)C(=O)N[C@@H](CCC(=O)O)C(=O)N[C@@H](CO)C(=O)N[C@@H](CCCCN)C(=O)N[C@@H](CCCNC(=N)N)C(=O)N[C@@H](C)C(=O)N[C@@H](CCCNC(=N)N)C(=O)N[C@@H](CCC(=O)O)C(=O)N[C@@H](Cc1ccccc1)C(=O)N[C@H](C(=O)N[C@@H](CCC(N)=O)C(=O)N[C@@H](Cc1c[nH]c2ccccc12)C(=O)N[C@@H](CC(C)C)C(=O)N[C@@H](CC(C)C)C(=O)N[C@@H](CCCCNC(=O)CNC(=O)[C@H](CO)NC(=O)[C@H](CCC(=O)O)NC(=O)CNC(=O)[C@H](CO)NC(=O)CC[C@H](NC(=O)CC[C@H](NC(=O)CCCCCCCCCCCCCCCCC(=O)O)C(=O)O)C(=O)O)C(=O)N[C@H](C(N)=O)[C@@H](C)O)C(C)C` [Example 25, N^ε28-[2-[[(2S)-2-[[(2S)-4-carboxy-2-[[2-[[(2S)-2-[[(4S)-4-carboxy-4-[[(4S)-4-carboxy-4-(17-carboxyheptadecanoylamino)butanoyl]amino]butanoyl]amino]-3-hydroxypropanoyl]amino]acetyl]amino]butanoyl]amino]-3-hydroxypropanoyl]amino]acetyl]-[Aib2,Leu10,Glu15,Lys17,Arg20,Glu21,Leu27,Lys28]-Glucagon amide] (I: H-H[Aib]QGTFTSDLSKYLESKRAREFVQWLLKT-NH2 / II: {C18 diacid-γGlu-γGlu}-SGESG; amide I:28-II:C; N-terminus assumed) was tested. Which IC50 did it give?
**A.** Its IC50 is 0.2 nM.

**Q.** For `CC(C)C[C@H](NC(=O)[C@H](CC(C)C)NC(=O)[C@H](Cc1c[nH]c2ccccc12)NC(=O)[C@H](CCC(N)=O)NC(=O)[C@@H](NC(=O)[C@H](Cc1ccccc1)NC(=O)[C@H](CCC(=O)O)NC(=O)[C@H](CCCNC(=N)N)NC(=O)[C@H](C)NC(=O)[C@H](CCCNC(=N)N)NC(=O)[C@H](CCCNC(=N)N)NC(=O)[C@H](CO)NC(=O)[C@H](CCC(=O)O)NC(=O)[C@H](CC(C)C)NC(=O)[C@H](Cc1ccc(O)cc1)NC(=O)[C@H](CCCCN)NC(=O)[C@H](CO)NC(=O)[C@H](CC(C)C)NC(=O)[C@H](CC(=O)O)NC(=O)[C@H](CO)NC(=O)[C@@H](NC(=O)[C@H](Cc1ccccc1)NC(=O)[C@@H](NC(=O)CNC(=O)[C@H](CCC(N)=O)NC(=O)C(C)(C)NC(=O)[C@@H](N)Cc1c[nH]cn1)[C@@H](C)O)[C@@H](C)O)C(C)C)C(=O)N[C@@H](CC(N)=O)C(=O)N[C@@H](CCCCNC(=O)CC[C@H](NC(=O)COCCOCCNC(=O)COCCOCCNC(=O)CC[C@H](NC(=O)CC[C@H](NC(=O)CCCCCCCCCCCCCCCCC(=O)O)C(=O)O)C(=O)O)C(=O)O)C(N)=O` [Example 21, N^ε29-[(4S)-4-carboxy-4-[[2-[2-[2-[[2-[2-[2-[[(4S)-4-carboxy-4-[[(4S)-4-carboxy-4-(17-carboxyheptadecanoylamino)butanoyl]amino]butanoyl]amino]ethoxy]ethoxy]acetyl]amino]ethoxy]ethoxy]acetyl]amino]butanoyl]-[Aib2,Leu10,Glu15,Arg20,Glu21,Leu27,Lys29]-Glucagon amide] (H-H[Aib]QGTFTSDLSKYLESRRAREFVQWLLNK([γGlu-AEEA-AEEA-γGlu-γGlu-C18 diacid])-NH2; N-terminus assumed), which IC50 is on record?
**A.** The IC50 was 0.3 nM.

**Q.** With `CC(C)C[C@H](NC(=O)[C@H](CC(=O)O)NC(=O)[C@H](CC(C)C)NC(=O)[C@H](Cc1ccc(O)cc1)NC(=O)[C@H](CCCNC(=N)N)NC(=O)[C@H](CO)NC(=O)[C@H](CC(C)C)NC(=O)[C@H](CC(=O)O)NC(=O)[C@H](CO)NC(=O)[C@@H](NC(=O)[C@H](Cc1ccccc1)NC(=O)[C@@H](NC(=O)CNC(=O)[C@H](CCC(N)=O)NC(=O)C1(NC(=O)[C@@H](N)Cc2c[nH]cn2)CCC1)[C@@H](C)O)[C@@H](C)O)C(=O)N[C@@H](CCCNC(=N)N)C(=O)N[C@@H](CCCNC(=N)N)C(=O)N[C@@H](C)C(=O)N[C@@H](CCCNC(=N)N)C(=O)N[C@@H](CC(=O)O)C(=O)N[C@@H](Cc1ccccc1)C(=O)N[C@H](C(=O)N[C@@H](CCC(N)=O)C(=O)N[C@@H](Cc1c[nH]c2ccccc12)C(=O)N[C@@H](CC(C)C)C(=O)N[C@@H](CC(C)C)C(=O)N[C@@H](CCCCNC(=O)CC[C@H](NC(=O)CC[C@H](NC(=O)COCCOCCNC(=O)COCCOCCNC(=O)CC[C@H](NC(=O)CC[C@H](NC(=O)CCCCCCCCCCCCCCCCC(=O)O)C(=O)O)C(=O)O)C(=O)O)C(=O)O)C(=O)N[C@H](C(N)=O)[C@@H](C)O)C(C)C` [Example 46, N^ε28-[(4S)-4-carboxy-4-[[(4S)-4-carboxy-4-[[2-[2-[2-[[2-[2-[2-[[(4S)-4-carboxy-4-[[(4S)-4-carboxy-4-(17-carboxyheptadecanoylamino)butanoyl]amino]butanoyl]amino]ethoxy]ethoxy]acetyl]amino]ethoxy]ethoxy]acetyl]amino]butanoyl]amino]butanoyl]-[Acb2,Leu10,Arg12,Leu16,Arg20,Leu27,Lys28]-Glucagon amide] (H-H[Ac4c]QGTFTSDLSRYLDLRRARDFVQWLLK([γGlu-γGlu-AEEA-AEEA-γGlu-γGlu-C18 diacid])T-NH2; N-terminus assumed) as the compound, how does the IC50 read?
**A.** Its IC50 is 1.1 nM.

**Q.** With `CC(C)C[C@H](NC(=O)[C@H](Cc1ccc(O)cc1)NC(=O)[C@H](CCCCN)NC(=O)[C@H](CO)NC(=O)[C@H](CC(C)C)NC(=O)[C@H](CC(=O)O)NC(=O)[C@H](CO)NC(=O)[C@@H](NC(=O)[C@H](Cc1ccccc1)NC(=O)[C@@H](NC(=O)CNC(=O)[C@H](CCC(N)=O)NC(=O)C(C)(C)NC(=O)[C@@H](N)Cc1c[nH]cn1)[C@@H](C)O)[C@@H](C)O)C(=O)N[C@@H](CCC(=O)O)C(=O)N[C@@H](CO)C(=O)N[C@@H](CCCCN)C(=O)N[C@@H](CCCNC(=N)N)C(=O)N[C@@H](C)C(=O)N[C@@H](CCCNC(=N)N)C(=O)N[C@@H](CCC(=O)O)C(=O)N[C@@H](Cc1ccccc1)C(=O)N[C@H](C(=O)N[C@@H](CCC(N)=O)C(=O)N[C@@H](Cc1c[nH]c2ccccc12)C(=O)N[C@@H](CC(C)C)C(=O)N[C@@H](CC(C)C)C(=O)N[C@@H](CCCCNC(=O)CC[C@H](NC(=O)CC[C@H](NC(=O)[C@H](CO)NC(=O)[C@H](CCC(=O)O)NC(=O)[C@H](CO)NC(=O)CC[C@H](NC(=O)CC[C@H](NC(=O)CCCCCCCCCCCCCCCCC(=O)O)C(=O)O)C(=O)O)C(=O)O)C(=O)O)C(=O)N[C@H](C(N)=O)[C@@H](C)O)C(C)C` [Example 52] (H-H[Aib]QGTFTSDLSKYLESKRAREFVQWLLK([γGlu-γGlu-Ser-Glu-Ser-γGlu-γGlu-C18 diacid])T-NH2; N-terminus assumed) as the compound, how does the IC50 read?
**A.** The IC50 was 0.2 nM.

**Q.** For `CC(C)C[C@H](NC(=O)[C@H](Cc1ccc(O)cc1)NC(=O)[C@H](CCCCN)NC(=O)[C@H](CO)NC(=O)[C@H](CC(C)C)NC(=O)[C@H](CC(=O)O)NC(=O)[C@H](CO)NC(=O)[C@@H](NC(=O)[C@H](Cc1ccccc1)NC(=O)[C@@H](NC(=O)CNC(=O)[C@H](CCC(N)=O)NC(=O)C(C)(C)NC(=O)[C@@H](N)Cc1c[nH]cn1)[C@@H](C)O)[C@@H](C)O)C(=O)N[C@@H](CCC(=O)O)C(=O)N[C@@H](CO)C(=O)N[C@@H](CCCNC(=N)N)C(=O)N[C@@H](CCCNC(=N)N)C(=O)N[C@@H](C)C(=O)N[C@@H](CCCNC(=N)N)C(=O)N[C@@H](CCC(=O)O)C(=O)N[C@@H](Cc1ccccc1)C(=O)N[C@H](C(=O)N[C@@H](CCC(N)=O)C(=O)N[C@@H](Cc1c[nH]c2ccccc12)C(=O)N[C@@H](CC(C)C)C(=O)N[C@@H](CC(C)C)C(=O)N[C@@H](CCCCNC(=O)CC[C@H](NC(=O)CC[C@H](NC(=O)CC[C@H](NC(=O)CCCCCCCCCCCCCCCCC(=O)O)C(=O)O)C(=O)O)C(=O)O)C(=O)N[C@H](C(N)=O)[C@@H](C)O)C(C)C` [Example 41, N^ε28-[(4S)-4-carboxy-4-[[(4S)-4-carboxy-4-[[(4S)-4-carboxy-4-(17-carboxyheptadecanoylamino)butanoyl]amino]butanoyl]amino]butanoyl]-[Aib2,Leu10,Glu15, Arg20,Glu21,Leu27,Lys28]-Glucagon amide] (H-H[Aib]QGTFTSDLSKYLESRRAREFVQWLLK([γGlu-γGlu-γGlu-C18 diacid])T-NH2; N-terminus assumed), which IC50 is on record?
**A.** Its IC50 is 0.3 nM.

— patent US9474790B2, “Stable, protracted GLP-1/glucagon receptor co-agonists for medical use” (Novo Nordisk A/S, priority 2013, dated 2016)
